The values below come from article PMC7866122, “Development of MTH1-Binding Nucleotide Analogs Based on 7,8-Dihalogenated 7-Deaza-dG Derivatives” (International Journal of Molecular Sciences, 2021).

“Also recorded” adds a separate entry of the source. Read-outs that look alike come from different tables or passages of the source.

For assay [1], the target named is T1, MTH1 (Homo sapiens, UniProt P36639). The experiment in a line: Inhibition of the MTH1 hydrolysis of 8-oxo-dGTP (HPLC). Conditions: 50 μM 8-oxo-dGTP, 5 nM MTH1, pH 7.5, 37 °C, 10 min. The class given is biochemical. The procedure:
We examined whether the nucleoside diols, nucleoside monophosphate (NMP), and nucleoside triphosphate (NTP) derivatives inhibit the MTH1 hydrolysis of 8-oxo-dGTP. MTH1 and 8-oxo-dGTP were mixed with various concentrations of synthesized derivatives, and this mixture was incubated and analyzed by HPLC. In the case of diol compounds, 7,8-dichloro-7-deaza-dG (1), 7,8-dibromo-7-deaza-dG (2), and 7,8-diiodo-7-deaza-dG (3) exerted inhibitory effects on the hydrolytic activity of MHT1 at a micromolar level (Table 1, Entries 1–3). Their IC50 values were better than that of 8-iodo-7-deaza-dG (4) (Table 1, Entry 4).
Twenty microliters of MTH1 buffer (100 mM Tris-HCl, pH 7.5, 20 mM MgCl2, 200 mM NaCl, […] BSA, 40 mM DTT, and 50% glycerol), 10 μL (500 μM) of 8-oxo-dGTP, 55 μL of MilliQ, and 10 μL of various concentrations of substituted 7-deaza-dG derivatives were pre-incubated at 37 °C for 10 min (concentrations used: 7-deaza-dG, 7,8-dihalogenated-7-deaza-dG were 0, 0.5, 1, 2.5, 5, 10, 25, 50, 100, and 250 μM in 1% DMSO; 8-CF3-7-deazadGMP (3) was 0, 0.05, 0.1, 0.25, 0.5, 1, 2.5, 5, 10, and 25 μM; 7,8-dihalogenated-7-deaza-dGMP and –dGTP were 0, 0.0125, 0.025, 0.05, 0.1, 0.25, 0.5, 1, and 2.5 μM). Five microliters of MTH1 (0.1 pmol/μL in MTH1 buffer) was added, and the reaction mixture was incubated at 37 °C for 10 min. The resulting solutions were quenched with 100 μL of stop solution (5 mM EDTA). All samples were loaded on ice before the analysis with HPLC (HPLC conditions: A: 0.1 M TEAA, B: MeCN; Flow rate: 1.0 mL/min; Shiseido MG1 (4.6 × 250 mm); UV detector: 254 nm; 35 °C). The relative hydrolysis ratio values (ratio with inhibitor/ratio without inhibitor) were plotted at each inhibitor concentration. IC50 values were assessed using images.

The target in assay [2] is T1, MTH1. The experiment in a line: Steady-state kinetics of MTH1 hydrolysis of 8-oxo-dGTP (Lineweaver-Burk plot). The assay is classed as biochemical. The note with it: 2 nM MTH1, 37 °C. The text has this: We made a Lineweaver-Burk plot to calculate kinetic parameters (KM and kcat) in order to reveal the types of inhibition modes for MTH1. […] In the presence of new 7-deaza-dG monophosphate and triphosphate, kcat values were only slightly altered (Entries 2–7). On the other hand, all KM values increased (Entries 2–7).

Assay [3] has as its target T1, MTH1. Details: method as in earlier work. Conditions: inhibition of the hydrolytic activity of MTH1; ChemBioChem 17, 566 (2016); cited from earlier work.
The target of assay [4] is T1, MTH1. Also on record: method as in doi:10.1016/j.tet.2014.01.047, PMID 26879218, PMID 27372838. Conditions: earlier work of the authors; cited from earlier work.
Assay [5] addresses T1, MTH1. As to the kind of experiment: Hydrolysis of triphosphate derivatives by MTH1 (HPLC time course). The note with it: 50 μM dNTP, 5 nM MTH1, 37 °C, various times. The assay is classed as biochemical. The procedure:
Since the shapes of synthesized triphosphate derivatives were similar to 8-oxo-dGTP, we investigated whether these triphosphate derivatives are hydrolyzed by MTH1. MTH1 and these triphosphate derivatives were mixed and incubated at 37 °C for various times, and hydrolysis reactions were analyzed by HPLC. […] However, in the case of 7,8-dihalogenated triphosphate derivatives, the peak of the corresponding monophosphate was not detected in HPLC following the treatment with MTH1 (Figure 2. 9: purple, 10: red and 11: blue lines).
The reaction mixture was pre-incubated at 37 °C for 10 min before the addition of MTH1 to a final volume of 100 L (final concentration: 20 mM Tris-HCl, pH 7.5, 4 mM MgCl2, 40 mM NaCl, […] bovine serum albumin (BSA), 8 mM dithiothreitol (DTT), 10% glycerol; 0.5 pmol MTH1; 50 μM 7,8-dihalogenated-7-deaza-dGTP […], 8-CF3-7-deaza-dGTP (4), and 8-oxo-dGTP). The resulting solutions were incubated at 37 °C for various times and quenched with 100 μL of stop solution (5 mM EDTA). All samples were loaded on ice before the analysis with HPLC (HPLC conditions: A: 0.1 M TEAA, B: CH3CN; Flow rate: 1.0 mL/min; Shiseido MG1 (4.6 × 250 mm); UV detector: 254 nm; column oven: 35 °C).
Figure 2 Time courses of the hydrolysis of 8-oxo-dGTP, 7-deaza-dGTP, and 7,8-dihalogenated-7-deaza-dGTP (9, 10, and 11) by MTH1. Reaction conditions: 20 mM Tris-HCl pH 7.5, 4 mM MgCl2, 40 mM NaCl, 80 μg/mL bovine serum albumin (BSA), 8 mM dithiothreitol (DTT), 10% glycerol; 50 μM 8-oxo-dGTP, 5 nM MTH1; 50 μM dNTPs; incubated at 37 °C for various times. Hydrolysis reactions were analyzed by HPLC, and the cleavage rate was calculated from the peak area.

The mark [6] stands for this setting: 8-oxo-dGTP hydrolysis in the presence of inhibitor, 10–250 μM 8-oxo-dGTP.
Where [7] appears, read: substrate 8-oxo-dGTP, in the absence of inhibitors.

As usually defined, the IC50 is the point on the concentration scale where inhibition reaches its midpoint. The kcat is the number of substrate molecules converted per active site and unit of time at saturation. Usually Ki stands for a measure of affinity in units of concentration, obtained from inhibition or displacement. A word on the Km: it is the concentration of substrate that gives half-maximal velocity.

`Nc1nc2c(c(Br)c(Br)n2[C@H]2C[C@H](O)[C@@H](COP(=O)(O)O)O2)c(=O)[nH]1` [Compound 6, 7,8-di-Bromo-7-deaza-2′-deoxy-guanosine monophosphate]: half-maximal inhibition in assay [1] (IC50) was put at 260 nM. Also, the kcat in assay [2] (setting [6]) worked out at 9.1 s⁻¹. In addition, the Ki in assay [2] (10–250 μM 8-oxo-dGTP) came to 27.9 nM.

Turning to `Nc1nc2c(cc(I)n2[C@H]2C[C@H](O)[C@@H](CO)O2)c(=O)[nH]1` [Compound 4, 8-iodo-7-deaza-dG], in assay [3], the IC50 was 44800 nM.

Take `Nc1nc2c(c(Cl)c(Cl)n2[C@H]2C[C@H](O)[C@@H](COP(=O)(O)O)O2)c(=O)[nH]1` [Compound 5, 7,8-di-Chloro-7-deaza-2′-deoxy-guanosine monophosphate]: in assay [1], the IC50 came out at 130 nM. For the same compound, the kcat in assay [2] (setting [6]) amounted to 9.7 s⁻¹. The compound also displayed a Ki in assay [2] (10–250 μM 8-oxo-dGTP) of 37 nM.

For the compound `Nc1nc2c(cc(I)n2[C@H]2C[C@H](O)[C@@H](COP(=O)(O)OP(=O)(O)OP(=O)(O)O)O2)c(=O)[nH]1` [Compound 12, 8-iodo-7-deaza-dGTP], the IC50 in assay [3] was 420 nM. Besides, in assay [4], the Ki was 61.7 nM.

Regarding `NC1=NC(=O)C2=NC(=O)N([C@H]3C[C@H](O)[C@@H](COP(=O)(O)OP(=O)(O)OP(=O)(O)O)O3)C2=N1` [Compound 8-oxo-dGTP, 8-oxo-2′-deoxyguanosine-5′-triphosphate, reference compound], the “Hydrolysis to the monophosphate by MTH1” value in assay [5] was “rapidly hydrolyzed”. In addition, in assay [2] (setting [7]), the Km worked out at 17.6 µM and the kcat was 10.6 s⁻¹.

`Nc1nc2c(c(I)c(I)n2[C@H]2C[C@H](O)[C@@H](COP(=O)(O)O)O2)c(=O)[nH]1` [Compound 7, 7,8-di-Iodo-7-deaza-2′-deoxy-guanosine monophosphate] registered an IC50 in assay [1] of 130 nM. The “Hydrolysis to the monophosphate by MTH1” value in assay [5] is “not hydrolyzed”. Further, the kcat in assay [2] (setting [6]) was 10.7 s⁻¹.

`Nc1nc2c(c(Cl)c(Cl)n2[C@H]2C[C@H](O)[C@@H](CO)O2)c(=O)[nH]1` [Compound 1, 7,8-di-Chloro-7-deaza-2′-deoxy-guanosine] gave an IC50 in assay [1] of 22500 nM.

Consider `CC(=O)OC[C@H]1O[C@@H](n2ccc3c(=O)[nH]c(N)nc32)C[C@@H]1OC(C)=O` [Compound 13, 3′,5′-di-O-Acetyl-7-deaza-2′-deoxyguanosine], for which the “Hydrolysis to the monophosphate by MTH1” value in assay [5] is reported as “not hydrolyzed”.

On to `Nc1nc2c(c(I)c(I)n2[C@H]2C[C@H](O)[C@@H](CO)O2)c(=O)[nH]1` [Compound 3, 7,8-di-Iodo-7-deaza-2′-deoxy-guanosine], for which the IC50 in assay [1] amounted to 17000 nM.

In turn, `Nc1nc2c(cc(I)n2[C@H]2C[C@H](O)[C@@H](COP(=O)(O)O)O2)c(=O)[nH]1` [Compound 8, 8-Iodo-7-deaza-2′-deoxy-guanosine monophosphate] returned an IC50 in assay [1] of 840 nM.

Turning to `Nc1nc2c(c(Br)c(Br)n2[C@H]2C[C@H](O)[C@@H](CO)O2)c(=O)[nH]1` [Compound 2, 7,8-di-Bromo-7-deaza-2′-deoxy-guanosine], in assay [1], the IC50 was determined as 10700 nM.

Consider `Nc1nc2c(c(Br)c(Br)n2[C@H]2C[C@H](O)[C@@H](COP(=O)(O)OP(=O)(O)OP(=O)(O)O)O2)c(=O)[nH]1` [Compound 10, 7,8-di-Bromo-7-deaza-2′-deoxy-guanosine triphosphate], for which inhibition in assay [1] was half-maximal at 110 nM (IC50). In addition, the “Hydrolysis to the monophosphate by MTH1” value in assay [5] is on record as “not detected; also recorded: not hydrolyzed”. Moreover, the kcat in assay [2] (setting [6]) came to 9.4 s⁻¹. In assay [2] (10–250 μM 8-oxo-dGTP), this compound yielded a Ki of 24.2 nM.

For `Nc1nc2c(c(Cl)c(Cl)n2[C@H]2C[C@H](O)[C@@H](COP(=O)(O)OP(=O)(O)OP(=O)(O)O)O2)c(=O)[nH]1` [Compound 9, 7,8-di-Chloro-7-deaza-2′-deoxy-guanosine triphosphate], half-maximal inhibition in assay [1] (IC50) required 160 nM. The “Hydrolysis to the monophosphate by MTH1” value in assay [5] was “not detected”. The turnover number (kcat) in assay [2] (setting [6]) was 9.3 s⁻¹. Further, the affinity in assay [2] (10–250 μM 8-oxo-dGTP), expressed as Ki, was 28.1 nM.

With `CNc1cc(-c2cccc(Cl)c2Cl)nc(N)n1` [TH287, reference compound], in assay [3], the IC50 was 10 nM.

The compound `Nc1nc2c(c(I)c(I)n2[C@H]2C[C@H](O)[C@@H](COP(=O)(O)OP(=O)(O)OP(=O)(O)O)O2)c(=O)[nH]1` [Compound 11, 7,8-di-Iodo-7-deaza-2′-deoxy-guanosine triphosphate] displayed an IC50 in assay [1] of 130 nM. In addition, the “Hydrolysis to the monophosphate by MTH1” value in assay [5] is “not detected”. Moreover, the kcat in assay [2] (setting [6]) was 11.9 s⁻¹. The affinity in assay [2] (10–250 μM 8-oxo-dGTP), expressed as Ki, was 30.4 nM.

In the case of `Nc1nc2c(ccn2[C@H]2C[C@H](O)[C@@H](COP(=O)(O)OP(=O)(O)OP(=O)(O)O)O2)c(=O)[nH]1` [Compound 7-deaza-dGTP, 7-deaza-dGTP, reference compound], in assay [5], the “Hydrolysis to the monophosphate by MTH1” value is reported as “hydrolyzed, but more slowly than 8-oxo-dGTP”.
